This test addresses T1, Kv1.5 (Homo sapiens, UniProt P22460).
T1 construct: expressed in transfected cells; host or cells: HEK or LTK- cells
Kind of test: Kv1.5 Patch Clamp EP (whole cell patch clamp; single point at 1 μM and IC50). It is filed as cell-based. Particulars: single point at 1.0 μM, Kv1.5 stably over expressed in HEK or LTK- cells. The method, then:
The external solution is standard Tyrodes solution. […] Inhibition was measured at the end of the 1 second pulses and expressed relative to controls. Initial Kv1.5 inhibition is estimated by single point determinations done at 1 μM.
On the technique in general: Patch clamp records ionic current or voltage across a cell membrane.

SMILES strings stand for the structures.

T1 sequence (P22460 whole entry): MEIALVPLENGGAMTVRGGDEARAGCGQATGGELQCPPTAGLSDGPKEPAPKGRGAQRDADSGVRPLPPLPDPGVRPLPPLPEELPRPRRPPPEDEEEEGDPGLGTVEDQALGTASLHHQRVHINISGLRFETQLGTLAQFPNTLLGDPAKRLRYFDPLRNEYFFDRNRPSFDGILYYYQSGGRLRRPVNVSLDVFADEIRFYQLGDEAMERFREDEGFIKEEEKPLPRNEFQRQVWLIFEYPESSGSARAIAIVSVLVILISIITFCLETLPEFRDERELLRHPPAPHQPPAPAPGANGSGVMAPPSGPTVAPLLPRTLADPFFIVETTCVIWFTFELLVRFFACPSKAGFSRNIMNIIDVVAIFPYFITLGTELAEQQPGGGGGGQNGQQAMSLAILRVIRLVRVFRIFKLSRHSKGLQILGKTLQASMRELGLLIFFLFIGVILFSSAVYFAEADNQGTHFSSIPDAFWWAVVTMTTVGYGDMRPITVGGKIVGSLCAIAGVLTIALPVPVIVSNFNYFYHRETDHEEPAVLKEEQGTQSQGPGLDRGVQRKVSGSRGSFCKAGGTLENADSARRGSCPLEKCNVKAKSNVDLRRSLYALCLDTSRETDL

`CN1C(c2ccc(C3CC3)cc2)N(CCCc2ccccc2)C(=O)C12CCNCC2` (stereo not drawn) [Compound 43, 2-(4-Cyclopropylphenyl)-1-methyl-3-(3-phenylpropyl) —1,3,8-triazaspiro[4.5]-decan-4-one] had an inhibition at 1 µM of 23%. With `COc1ccc(CCN2C(=O)C3(CCNCC3)N(C)C2c2ccc(C3CC3)cc2)cc1` (stereo not drawn) [Compound 1, 2-(4-Cyclopropylphenyl)-3-[2-(4-methoxyphenyl)ethyl]-1-methyl-1,3,8-triaza-spiro[4.5]decan-4-one], the inhibition at 1 µM stood at 2%. The same measure for `COc1ccc(CCN2C(=O)C3(CCN(C(=O)C(C)(C)NC(=O)OC(C)(C)C)CC3)N(C)C2c2ccc(C3CC3)cc2)cc1` (stereo not drawn) [Compound 70, (2-{2-(4-cyclopropylphenyl)-3-[2-(4-methoxyphenyl)ethyl]-1-methyl-4-oxo-1,3,8-triaza-spiro[4.5]dec-8-yl}-1,1-dimethyl-2-oxo-ethyl)-carbamic acid tert-butyl ester]: 42%. The same measure for `COc1ccc(CCN2C(=O)C3(CCNCC3)NC2c2ccc(C(C)(C)C)cc2)cc1` (stereo not drawn) [Compound 76, 2-(4-tert-butylphenyl)-3-[2-(4-methoxyphenyl)ethyl]-1,3,8-triazaspiro[4.5]decan-4-one]: 5%. The same measure for `COc1ccc(CCN2C(=O)C3(CCN(CC(N)=O)CC3)N(C)C2c2ccc(OC(F)F)cc2)cc1` (stereo not drawn) [Compound 57, 2-{2-(4-Difluoromethoxyphenyl)-3-[2-(4-methoxyphenyl)ethyl]-1-methyl-4-oxo-1,3,8-triaza-spiro[4.5]dec-8-yl}acetamide]: 25%; for `CN1C(c2ccc(C3CC3)cc2)N(CCc2ccc(OC(F)(F)F)cc2)C(=O)C12CCNCC2` (stereo not drawn) [Compound 78, 2-(4-cyclopropylphenyl)-1-methyl-3-{2-[4-(trifluoromethoxy)phenyl]ethyl}-1,3,8-triazaspiro[4.5]decan-4-one]: 16%. Consider `CN1C(c2ccc(C3CC3)cc2)N(CCc2ccc(OC(F)(F)F)cc2)C(=O)C12CCN(C(=O)OC(C)(C)C)CC2` (stereo not drawn) [Compound 77, tert-butyl 2-(4-cyclopropylphenyl)-1-methyl-4-oxo-3-{2-[4-(trifluoromethoxy)phenyl]ethyl}-1,3,8-triazaspiro[4.5]decane-8-carboxylate], for which the inhibition at 1 µM came out at 7%. With `COc1ccc(CCN2C(=O)C3(CCN(CC4CC4)CC3)N(C)C2c2ccc(C3CC3)cc2)cc1` (stereo not drawn) [Compound 56, 8-Cyclopropylmethyl-2-(4-cyclopropylphenyl)-3-[2-(4-methoxyphenyl)ethyl]-1-methyl-1,3,8-triaza-spiro[4.5]decan-4-one], the inhibition at 1 µM stood at 12%.

In turn, `COc1ccc(CCN2C(=O)C3(CCN(C(=O)OC(C)(C)C)CC3)N(C)C2c2ccc(OC(F)F)cc2)cc1` (stereo not drawn) [Compound 40, tert-Butyl 2-(4-difluoromethoxyphenyl)-3-[2-(4-methoxyphenyl)ethyl]-1-methyl-4-oxo-1,3,8-triazaspiro[4.5]decane-8-carboxylate] came in with an inhibition at 1 µM of 22%. The compound `COc1ccc(CCN2C(=O)C3(CCN(C(N)=O)CC3)NC2c2ccc(C3CC3)cc2)cc1` (stereo not drawn) [Compound 74, 2-(4-cyclopropylphenyl)-3-[2-(4-methoxyphenyl)ethyl]-4-oxo-1,3,8-triazaspiro[4.5]decane-8-carboxamide] returned an inhibition at 1 µM of 5%. The same measure for `COc1ccc(C2NC3(CCN(C(=O)OC(C)(C)C)CC3)C(=O)N2CCCc2ccccc2)cc1` (stereo not drawn) [Compound 87, tert-butyl 2-(4-methoxyphenyl)-4-oxo-3-(3-phenylpropyl)-1,3,8-triazaspiro[4.5]decane-8-carboxylate]: 5%; for `COc1ccc(CCN2C(=O)C3(CCNCC3)NC2c2ccc(C3CC3)cc2)cc1` (stereo not drawn) [Compound 93, 2-(4-cyclopropylphenyl)-3-[2-(4-methoxyphenyl)ethyl]-1,3,8-triazaspiro[4.5]decan-4-one]: 21%.

Broadly, the inhibition is the drop in the measured response relative to a control, in per cent. Low values mean a weak effect, high ones a strong effect.

For the origin of these results see patent US20070299072A1, “KV1.5 POTASSIUM CHANNEL INHIBITORS” (Wyeth, priority 2006, published 2007).
